Laboratory results from US5504191A, “Human cancer inhibitory pentapeptide methyl esters” (priority 1994, dated 1996).

Tests used:
OVCAR-3 = test: Human cancer cell line growth inhibition, Ovarian OVCAR-3; type: cell-based; conditions: Ovarian OVCAR-3, 48 hrs
Text: (§1) Current research in the control of cancer in the United States is coordinated by the National Cancer Institute (NCI). To determine whether a substance has anti-cancer properties, the NCI has established a systematic protocol. […] The protocol, and the established statistical means for analyzing the results obtained by the standardized testing are fully described in the literature. See: Boyd, Dr. Michael R., Principles & Practice of Oncology, PPO Updates, Volume 3, Number 10, October 1989, for an in depth description of the testing protocol; and Paull K. D., "Display and Analysis of Patterns of Differential Activity of Drugs Against Human Tumor Cell Lines; Development of Mean Graph and COMPARE Algorithm" Journal of the National Cancer Institute Reports, Vol. 81, No. 14, Page 1088, Jul. 14, 1989 for a description of the methods of statistical analysis employed to evaluate the test results. Both of these references are incorporated herein by this reference thereto.
(§2) ED50 (P388) and GI50 (HTCL) identify the drug dose which reduces the percent tumor/cell growth to 50%. There is no mathematical difference between ED50 and GI50, both of which are calculated using the same formula. The only difference is historical usage.
(§3) TGI, means "Total Growth Inhibition" and identifies the drug dose needed to yield zero percent growth, i.e. there are just as many cells at the end of the experiment as were present at the beginning. Whether just as many cells were killed as were produced (steady state), or no growth occurred (total inhibition) cannot be distinguished.
(§4) LC50, means "Lethal Concentration 50%", and identifies the drug concentration which reduces to one-half of the cells originally present at the beginning of the experiment.
(§5) Each drug is tested at five (5) doses: 100 - 10 - 1 - 0.1 - 0.01 - μg/ml. Percent Growths are calculated for each dose. The two (or three) doses with growth values above, below, (or near to) 50% growth are used to calculate the ED50 /GI50 values using a linear regression computation. If no dose yields a growth value under 50%, the results are expressed as: ED50 >(highest dose). If no dose yields growth higher than 50% growth, then ED50 <(lowest dose). Similar calculations are performed for the TGI at 0% growth, and at -50% growth for the LC50.
(§6) At the start of each experiment, cells from the in vitro cell cultures are inoculated into the appropriate tubes or microtiter plates. One set of control tubes/plates is immediately counted to determine the number of cells at the start of the experiment. This is the "baseline count" or "Tzero reading". At the end of the experiment (48 hrs later), a second set of control tubes/plates is analyzed to determine the "Control Growth" value. The growth (or death) of cells relative to the initial quantity of cells is used to define the "Percent of Growth."

NCI-H460 = test: Human cancer cell line growth inhibition, Lung-NSC NCI-H460; type: cell-based; conditions: Lung-NSC NCI-H460, 48 hrs
Text: as §1, §2, §3, §4, §5, §6

PS-388 Mouse Leukemia = test: PS-388 mouse leukemia cell growth inhibition (ED50); type: cell-based; conditions: Mouse Leukemia PS-388
Description: as §2, §5, §6

A498 = test: Human cancer cell line growth inhibition, Renal A498; type: cell-based; conditions: Renal A498, 48 hrs
Text: as §1, §2, §3, §4, §5, §6

SF-295 = test: Human cancer cell line growth inhibition, CNS SF-295; type: cell-based; conditions: CNS SF-295, 48 hrs
Text: as §1, §2, §3, §4, §5, §6

KM20L2 = test: Human cancer cell line growth inhibition, Colon KM20L2; type: cell-based; conditions: Colon KM20L2, 48 hrs
Text: as §1, §2, §3, §4, §5, §6

SK-MEL-5 = test: Human cancer cell line growth inhibition, Melanoma SK-MEL-5; type: cell-based; conditions: Melanoma SK-MEL-5, 48 hrs
Text: as §1, §2, §3, §4, §5, §6

[1] = system: OVCAR-3 Human Ovary Xenograph; test: Dolastatin 10 in vivo, OVCAR-3 human ovary xenograph; conditions: OVCAR-3 xenograph, nude mouse, 40 μg/kg
Text: (§7) The synthesis of potentially useful peptides presents one of the most essential and promising approaches to new types of anticancer and immunosuppressant drugs. The Dolastatins, an unprecedented series of linear and cyclic antineoplastic and/or cytostatic peptides isolated from Indian Ocean sea hare Dolabella auricularia represent excellent leads for synthetic modification. The very productive sea hare Dolabella auricularia has produced a number of structurally distinct peptides with excellent antineoplastic activity. Presently Dolastatin 10, a linear pentapeptide, represents the most important member and is a potentially useful antineoplastic agent. […] Recently the total synthesis and absolute configuration of this structurally unique and biologically active peptide was discovered.

Human Mammary Xenograph = test: Dolastatin 10 in vivo, human mammary xenograph; conditions: nude mouse, 26 μg/kg
Text: as §7

[2] = system: LOX Human Melanoma Xenograph; test: Dolastatin 10 in vivo, LOX human melanoma xenograph; conditions: nude mouse
Text: as §7

N^α,N^ε --di--Z--Lys--Val--Dil--Dap--His--OMe [11a]
GI-50 (OVCAR-3): 0.12 µg/mL | LC-50 (OVCAR-3): > 1 µg/mL | TGI (OVCAR-3): 0.67 µg/mL | GI-50 (NCI-H460): 0.27 µg/mL | LC-50 (NCI-H460): > 1 µg/mL | TGI (NCI-H460): > 1 µg/mL | ED-50 (PS-388 Mouse Leukemia): > 1 µg/mL | GI-50 (A498): > 1 µg/mL | LC-50 (A498): > 1 µg/mL | TGI (A498): > 1 µg/mL | GI-50 (SF-295): 0.67 µg/mL | LC-50 (SF-295): > 1 µg/mL | TGI (SF-295): > 1 µg/mL | GI-50 (KM20L2): 0.29 µg/mL | LC-50 (KM20L2): > 1 µg/mL | TGI (KM20L2): > 1 µg/mL | GI-50 (SK-MEL-5): 0.08 µg/mL | LC-50 (SK-MEL-5): > 1 µg/mL | TGI (SK-MEL-5): > 1 µg/mL

N^γ,N^γ,N^α --tri--Z--Arg--Val--Dil--Dap--Met--OMe [11c]
GI-50 (OVCAR-3): 0.074 µg/mL | LC-50 (OVCAR-3): > 1 µg/mL | TGI (OVCAR-3): 0.74 µg/mL | GI-50 (NCI-H460): 0.25 µg/mL | LC-50 (NCI-H460): > 1 µg/mL | TGI (NCI-H460): 0.62 µg/mL | ED-50 (PS-388 Mouse Leukemia): 0.329 µg/mL | GI-50 (A498): 0.6 µg/mL | LC-50 (A498): > 1 µg/mL | TGI (A498): > 1 µg/mL | GI-50 (SF-295): 0.13 µg/mL | LC-50 (SF-295): > 1 µg/mL | TGI (SF-295): > 1 µg/mL | GI-50 (KM20L2): 0.28 µg/mL | LC-50 (KM20L2): > 1 µg/mL | TGI (KM20L2): > 1 µg/mL | GI-50 (SK-MEL-5): 0.38 µg/mL | LC-50 (SK-MEL-5): > 1 µg/mL | TGI (SK-MEL-5): > 1 µg/mL

Dolastatin 10
T/C [1]: 300 | T/C (Human Mammary Xenograph): Toxic | T/C ([2]; 3.25 μg/kg): 170 | cures ([2]; 3.25 μg/kg): 17% | cures ([2]; 6.5 μg/kg): 33% | cures ([2]; 13 μg/kg): 50% | cures ([2]; 26 μg/kg): 67% | T/C ([2]; 52 μg/kg): toxic

N^γ,N^γ,N^α --tri--Z--Arg--Val--Dil--Dap--N^ε --Z--Lys--OMe [11b]
GI-50 (OVCAR-3): > 1 µg/mL | LC-50 (OVCAR-3): > 1 µg/mL | TGI (OVCAR-3): > 1 µg/mL | GI-50 (NCI-H460): > 1 µg/mL | LC-50 (NCI-H460): > 1 µg/mL | TGI (NCI-H460): > 1 µg/mL | ED-50 (PS-388 Mouse Leukemia): 0.513 µg/mL | GI-50 (A498): > 1 µg/mL | LC-50 (A498): > 1 µg/mL | TGI (A498): > 1 µg/mL | GI-50 (SF-295): > 1 µg/mL | LC-50 (SF-295): > 1 µg/mL | TGI (SF-295): > 1 µg/mL | GI-50 (KM20L2): > 1 µg/mL | LC-50 (KM20L2): > 1 µg/mL | TGI (KM20L2): > 1 µg/mL | GI-50 (SK-MEL-5): > 1 µg/mL | LC-50 (SK-MEL-5): > 1 µg/mL | TGI (SK-MEL-5): > 1 µg/mL

Dov--Val--Dil--Dap--N^ε --Z--Lys--OMe [10a]
GI-50 (OVCAR-3): 0.0069 µg/mL | LC-50 (OVCAR-3): > 0.01 µg/mL | TGI (OVCAR-3): > 0.01 µg/mL | GI-50 (NCI-H460): > 0.01 µg/mL | LC-50 (NCI-H460): > 0.01 µg/mL | TGI (NCI-H460): > 0.01 µg/mL | ED-50 (PS-388 Mouse Leukemia): > 0.01 µg/mL | GI-50 (A498): > 0.01 µg/mL | LC-50 (A498): > 0.01 µg/mL | TGI (A498): > 0.01 µg/mL | GI-50 (SF-295): > 0.01 µg/mL | LC-50 (SF-295): > 0.01 µg/mL | TGI (SF-295): > 0.01 µg/mL | GI-50 (KM20L2): > 0.01 µg/mL | LC-50 (KM20L2): > 0.01 µg/mL | TGI (KM20L2): > 0.01 µg/mL | GI-50 (SK-MEL-5): 0.003 µg/mL | LC-50 (SK-MEL-5): > 0.01 µg/mL | TGI (SK-MEL-5): > 0.01 µg/mL

Dov--Val--Dil--Dap--His--OMe [10b]
GI-50 (OVCAR-3): 0.00071 µg/mL | LC-50 (OVCAR-3): > 0.01 µg/mL | TGI (OVCAR-3): > 0.01 µg/mL | GI-50 (NCI-H460): > 0.01 µg/mL | LC-50 (NCI-H460): > 0.01 µg/mL | TGI (NCI-H460): > 0.01 µg/mL | ED-50 (PS-388 Mouse Leukemia): > 0.01 µg/mL | GI-50 (A498): > 0.01 µg/mL | LC-50 (A498): > 0.01 µg/mL | TGI (A498): > 0.01 µg/mL | GI-50 (SF-295): > 0.01 µg/mL | LC-50 (SF-295): > 0.01 µg/mL | TGI (SF-295): > 0.01 µg/mL | GI-50 (KM20L2): 0.00099 µg/mL | LC-50 (KM20L2): > 0.01 µg/mL | TGI (KM20L2): > 0.01 µg/mL | GI-50 (SK-MEL-5): 0.0008 µg/mL | LC-50 (SK-MEL-5): > 0.01 µg/mL | TGI (SK-MEL-5): > 0.01 µg/mL
